The text below walks through data of patent US6423508B1, “Polynucleotide sequences of human EDG-1c” (SmithKline Beecham Corporation, priority 1998, dated 2002).

Like-named read-outs stand apart in the source and are kept apart here.

In assay [1] the test system is endogenous receptors of RBL 2H3 cells. The assay can be described thus: Responses of control ligands of endogenous receptors in RBL 2H3 EDG-1c cells (calcium mobilization, FLIPR). The conditions noted are these: FIG. 8. Format: cell-based. Here is the method:
(§1) A number of cell lines were examined to identify one that would not respond to S-1-P through an endogenous receptor. […] Stable cell lines of the EDG1-c receptor were prepared in RBL 2H3 cell line. The expression of functionally active clones were followed using Fluorescent imaging plate reader (FLIPR).

The subject of assay [2] is isolated perfused rabbit heart. The assay can be described thus: Functional effects on isolated perfused rabbit heart. The conditions noted are these: 10 nM. As to the method: The functional effects of […] have been examined in isolated perfused rabbit heart. […] An increased in AoP (aortic pressure), reflecting a vasoconstrictor effect was observed, i.e., about 30% of increase at 5 min of treatment compared to the vehicle (methanol 0.001%).

Assay [3] concerns the target T1, human EDG-1c receptor (Homo sapiens, UniProt P21453).
T1 construct: expressed in transfected cells
The assay can be described thus: S-1-P-induced FUS1-LacZ reporter gene expression in yeast expressing human EDG-1c. The conditions noted are these: yeast FUS1-LacZ cells expressing human EDG-1c, FIG. 5. Format: cell-based. The text has this: The yeast strain(s) used contain mutations in genes in the pheromone response pathway, e.g., (i) deletion of the STE2 or STE3 gene encoding the endogenous G-protein coupled pheromone receptors; (ii) deletion of the FAR1 gene encoding a protein that normally associates with cyclin-dependent kinases leading to cell cycle arrest; and (iii) construction of reporter genes fused to the FUS1 gene promoter (where FUS1 encodes a membrane-anchored glycoprotein required for cell fusion). The downstream reporter (FUS1-LacZ) permits a colorimetric or fluorimetric readout in response to ligand.
For orientation: A reporter such as luciferase makes a cellular process visible.

For assay [4], the system named is untransfected HEK 293 cells (endogenous receptors that respond to S-1-P). The assay can be described thus: S-1-P-induced Ca2+ mobilization in untransfected HEK 293 cells (FLIPR). The format is cell-based. The conditions noted are these: FIG. 3. The text has this: The data were generated with the 96 well Fluorescent Imaging Plate Reader (FLIPR). Each point is the mean of 6-8 wells read on FLIPR.
In general terms: A change in cytosolic calcium serves as a functional read-out for many receptors and channels.

The target in assay [5] is T1, human EDG-1c receptor. The assay can be described thus: Calcium mobilization in RBL 2H3 cells stably transfected with human EDG-1c receptor (FLIPR). Format: cell-based. As to the method: as §1
The subject of assay [6] is rat neonatal cardiomyocytes. The assay can be described thus: Cellular hypertrophy in rat neonatal cardiomyocytes in culture. Format: cell-based. Here is the method: […] was tested in its ability to induce hypertrophy in an in vitro neonatal cardiomyocyte model. The assessment of cardiomyocyte hypertrophy is measured using four different parameters: protein synthesis (tritiated phenylalanine incorporation and protein content increase), tritiated thymidine incorporation (evaluation of fibroblast contamination), Brain Natriuretic Peptide (BNP) release and morphological parameters. Phenylephrine (PE) at 100 μM concentration is used as internal control experiments. […] Cardiomyocytes in culture display features of myocyte hypertrophy observed in vivo, such as changes in morphology (vizualised using light microscopy after staining with crystal violet), protein content, and pattern of gene expression.

Usually EC50 stands for the midpoint of the concentration-response curve.

T1 sequence (P21453 whole entry): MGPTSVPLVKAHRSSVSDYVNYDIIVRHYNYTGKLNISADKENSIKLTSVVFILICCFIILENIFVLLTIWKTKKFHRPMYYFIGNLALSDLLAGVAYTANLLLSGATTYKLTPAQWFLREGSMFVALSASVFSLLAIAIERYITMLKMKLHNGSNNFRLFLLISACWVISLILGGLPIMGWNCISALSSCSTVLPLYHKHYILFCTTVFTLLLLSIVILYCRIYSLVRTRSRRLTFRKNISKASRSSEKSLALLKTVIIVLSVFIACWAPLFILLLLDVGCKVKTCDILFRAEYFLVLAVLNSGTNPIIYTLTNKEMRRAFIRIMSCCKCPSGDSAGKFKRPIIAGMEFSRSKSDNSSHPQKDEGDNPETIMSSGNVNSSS

Turning to `Nc1ncnc2c1ncn2[C@@H]1O[C@H](COP(=O)(O)OP(=O)(O)OP(=O)(O)O)[C@@H](O)[C@H]1O` [ATP], the “EC50 of endogenous-receptor ligands” value in assay [1] was “expected EC50 values”.

Take `C[C@@H]1O[C@H](C[N+](C)(C)C)C[C@H]1O` [Muscarine]: the “response of RBL 2H3 EDG-1c cells to control ligand” value in assay [1] was “did not respond”.

On to `CCCCCCCCCCCCC/C=C/[C@@H](O)[C@@H](N)COP(=O)(O)O` [S-1-P, sphingosine 1-phosphate], for which the “LVEDP (left ventricular end-diastolic pressure)” value in assay [2] is “marked reduction”. Moreover, the “increase in AoP (aortic pressure), vasoconstrictor effect” value in assay [2] (at 5 min of treatment, compared to the vehicle (methanol 0.001%)) is on record as “about 30%”. Further, the “inotropic effect (pressure value)” value in assay [2] (at 10 min of drug administration, controls 96.09±6 mm Hg) turned out to be 84.7±6.3 mm Hg. For the same compound, at human EDG-1c receptor [3], the “expression of beta-galactosidase (FUS1-LacZ reporter response)” value is “receptor-dependent response”. The calcium mobilization response entry in assay [4] was “robust calcium mobilization response”. The EC50 on human EDG-1c receptor [5] (several RBL 2H3 EDG1-c clones, FIG. 7, read-out: EC50, calcium mobilization, best clones) lay within 10 to 20 nM. Also, the “cellular hypertrophy (increase of protein content, phenylalanine incorporation and BNP secretion to control cell values)” value in assay [6] (10 nM, 100 nM and 1 μM (n=3), each concentration) is recorded as “induced a cellular hypertrophy”. In addition, in assay [6] (1 μM (n=3)), the “increase of phenylalanine incorporation to the control cell values” was 30.1%±9.2, the “increase of protein content to the control cell values” is reported as 35.6%±6.3 and the “increase of thymidine incorporation to the control cell values” is on record as 11.4%±1.8. The “BNP secretion vs. control” value in assay [6] (S-1-P treated cardiomyocyte vs. control) is “four fold higher”.

As for `CCCCCCCCCCCCCCCC(O)C(N)COP(=O)(O)O` (stereo not drawn) [dihydro-S-1-P, di-hydro sphingosine 1-phosphate], at human EDG-1c receptor [5], the EC50 was 10 to 20 nM.

As to `CCCCC/C=C\C\C=C/C=C/C=C/[C@@H](SC[C@H](N)C(=O)NCC(=O)O)[C@@H](O)CCCC(=O)O` [leukotriene D4], the “EC50 of endogenous-receptor ligands” value in assay [1] is on record as “expected EC50 values”.

On to lysophosphatidic acid, for which, at human EDG-1c receptor [5] (best clones, FIG. 8), the “calcium mobilization response of RBL 2H3 EDG-1c cells” value was “did not respond”.

Consider sphingosine phosphorylcholine, for which, at human EDG-1c receptor [5] (best clones, FIG. 8), the “EC50, calcium mobilization through the EDG1-c receptor (in words)” value was “in the uM range” and the “calcium mobilization response of RBL 2H3 EDG-1c cells” value was “weakly”.
